Assay results: ChEMBL document CHEMBL1127261, “3-Substituted 6-butyl-1,2-dihydropyridin-2-ones: A new series of potent nonpeptide angiotensin II receptor antagonists” (Bioorg Med Chem Lett, 1994)

Experiments:
[1] = molecular target: T1, Angiotensin II receptor (AT-1) type-1 (Rattus norvegicus, UniProt P29089+P25095); test: In vitro binding affinity to angiotensin II receptor, type 1 in rat adrenal cortex preparation; assay type: tissue-based
T1 sequence (P29089 whole entry): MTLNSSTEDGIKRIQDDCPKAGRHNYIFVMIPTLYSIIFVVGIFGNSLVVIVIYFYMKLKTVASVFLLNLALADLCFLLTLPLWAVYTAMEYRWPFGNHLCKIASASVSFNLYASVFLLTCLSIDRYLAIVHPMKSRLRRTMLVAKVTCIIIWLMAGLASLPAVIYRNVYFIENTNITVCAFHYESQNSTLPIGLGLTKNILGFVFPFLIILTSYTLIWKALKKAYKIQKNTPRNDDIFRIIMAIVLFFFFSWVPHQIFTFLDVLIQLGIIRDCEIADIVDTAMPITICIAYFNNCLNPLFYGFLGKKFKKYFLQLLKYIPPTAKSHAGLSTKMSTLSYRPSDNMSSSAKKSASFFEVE
T1 sequence (P25095 whole entry): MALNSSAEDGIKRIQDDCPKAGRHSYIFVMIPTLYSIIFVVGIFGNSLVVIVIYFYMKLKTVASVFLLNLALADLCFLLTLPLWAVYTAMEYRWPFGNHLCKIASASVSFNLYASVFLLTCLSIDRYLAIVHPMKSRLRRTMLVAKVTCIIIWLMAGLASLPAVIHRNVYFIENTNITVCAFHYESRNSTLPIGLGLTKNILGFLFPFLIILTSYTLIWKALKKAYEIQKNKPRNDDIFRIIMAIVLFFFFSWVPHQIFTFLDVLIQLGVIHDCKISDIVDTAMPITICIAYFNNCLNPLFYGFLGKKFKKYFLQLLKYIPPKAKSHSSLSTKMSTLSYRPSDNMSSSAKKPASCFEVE

[2] = species on record: Oryctolagus cuniculus; test: In vitro functional antagonism in isolated rabbit aortic rings precontracted by AII; conditions: Aorta
[3] = test system: Rattus norvegicus; test: In vivo percent inhibition of AII induced increase in diastolic blood pressure in pithed rats at a dose of 3 mg/kg, i.d.; assay type: functional; conditions: Artery, route intraduodenal

SMILES	IC50 [1] [nM]	IC50 [2] [nM]	inhibition in vivo at 3 mg/kg [3] [%]
CCCCc1ccc(CNC(=O)Cc2ccccc2)c(=O)n1Cc1ccc(-c2ccccc2-c2nn[nH]n2)cc1	4.1	–	–
CCCCNC(=O)NCc1ccc(CCCC)n(Cc2ccc(-c3ccccc3-c3nn[nH]n3)cc2)c1=O	9	10	10.3
CCCCc1ccc(CNCc2ccccc2)c(=O)n1Cc1ccc(-c2ccccc2-c2nn[nH]n2)cc1	1.5	1	12.4
CCCCc1ccc(CN)c(=O)n1Cc1ccc(-c2ccccc2-c2nn[nH]n2)cc1	19	20	2.8
CCCCc1ccc(CNC(=O)CCC)c(=O)n1Cc1ccc(-c2ccccc2-c2nn[nH]n2)cc1	5.7	–	–
CCCCc1ccc(CNS(=O)(=O)c2ccc(C)cc2)c(=O)n1Cc1ccc(-c2ccccc2-c2nn[nH]n2)cc1	3.3	9	–
CCCCc1ccc(CNS(=O)(=O)c2ccccc2)c(=O)n1Cc1ccc(-c2ccccc2-c2nn[nH]n2)cc1	4.1	7	25.2
CCCCc1ccc(CN(Cc2ccccc2)S(C)(=O)=O)c(=O)n1Cc1ccc(-c2ccccc2-c2nn[nH]n2)cc1	3.8	2	41.2
CCCCc1ccc(CN(Cc2ccccc2)S(=O)(=O)c2ccc(C)cc2)c(=O)n1Cc1ccc(-c2ccccc2-c2nn[nH]n2)cc1	16.5	60	36.6
CCCCc1ccc(C#N)c(=O)n1Cc1ccc(-c2ccccc2-c2nn[nH]n2)cc1	18	–	–
CCCCc1ccc(C)c(=O)n1Cc1ccc(-c2ccccc2-c2nn[nH]n2)cc1	6.1	7	–
CCCCc1ccc(CN(C)S(=O)(=O)c2ccccc2)c(=O)n1Cc1ccc(-c2ccccc2-c2nn[nH]n2)cc1	4.2	2	68.7
CCCCc1ccc(CNC(=O)N(C)C)c(=O)n1Cc1ccc(-c2ccccc2-c2nn[nH]n2)cc1	2.9	2	28
CCCCc1cccc(=O)n1Cc1ccc(-c2ccccc2-c2nn[nH]n2)cc1	18	4	–
CCCCc1ccc(CN(C)S(=O)(=O)c2ccc(C)cc2)c(=O)n1Cc1ccc(-c2ccccc2-c2nn[nH]n2)cc1	4.2	8	–
CCCCc1ccc(CN(CC)S(C)(=O)=O)c(=O)n1Cc1ccc(-c2ccccc2-c2nn[nH]n2)cc1	3.5	2	–
CCCCc1ccc(CNC(=O)NC2CCCCC2)c(=O)n1Cc1ccc(-c2ccccc2-c2nn[nH]n2)cc1	21	90	0
CCCCc1ccc(CNC(=O)OC(C)(C)C)c(=O)n1Cc1ccc(-c2ccccc2-c2nn[nH]n2)cc1	6	10	68.9
CCCCc1ccc(CN(Cc2ccccc2)C(=O)OC(C)(C)C)c(=O)n1Cc1ccc(-c2ccccc2-c2nn[nH]n2)cc1	20	–	–
CCCCc1ccc(CN(Cc2ccccc2)C(C)=O)c(=O)n1Cc1ccc(-c2ccccc2-c2nn[nH]n2)cc1	2.8	1	76.3
CCCCc1ccc(CNS(C)(=O)=O)c(=O)n1Cc1ccc(-c2ccccc2-c2nn[nH]n2)cc1	2.2	2	54.8
CCCCc1ccc(CN(C(C)C)S(C)(=O)=O)c(=O)n1Cc1ccc(-c2ccccc2-c2nn[nH]n2)cc1	1.9	0.9	82.7
CCCCc1ccc(CN(Cc2ccccc2)S(=O)(=O)c2ccccc2)c(=O)n1Cc1ccc(-c2ccccc2-c2nn[nH]n2)cc1	12	20	75.7
CCCCc1ccc(CNC(C)=O)c(=O)n1Cc1ccc(-c2ccccc2-c2nn[nH]n2)cc1	3.8	3	8.6
CCCCc1ccc(CNC(=O)N(CC)CC)c(=O)n1Cc1ccc(-c2ccccc2-c2nn[nH]n2)cc1	6.5	–	–
CCCCc1ccc(CN(C)S(C)(=O)=O)c(=O)n1Cc1ccc(-c2ccccc2-c2nn[nH]n2)cc1	1.2	0.2	83.4
CCCCc1nc(Cl)c(CO)n1Cc1ccc(-c2ccccc2-c2nn[nH]n2)cc1	–	3	73.6
CCCCc1ccc(CN(C)C(=O)N(C)C)c(=O)n1Cc1ccc(-c2ccccc2-c2nn[nH]n2)cc1	13	–	–
CCCCc1ccc(CNS(=O)(=O)C(F)(F)F)c(=O)n1Cc1ccc(-c2ccccc2-c2nn[nH]n2)cc1	22	–	–
CCCCc1ccc(CNC(=O)Nc2ccccc2)c(=O)n1Cc1ccc(-c2ccccc2-c2nn[nH]n2)cc1	18	30	0
